Data reported in patent US9289444B2, “Composition for promoting hematogenesis containing quercetin 3-O-β-(2″-galloyl)-rhamnopyranoside as active ingredient” (Chungbuk National University Industry Academic Cooperation …, priority 2011, dated 2016).

Columns and labels:
[1] = test system: bone marrow failure mouse induced by busulphan (BU); assay: Flow cytometric analysis of bone marrow cells in BU bone marrow failure model; assay type: in vivo, Balb/c mice
Protocol: (§1) Bone marrow failure model induced by administering busulphan (BU) was designed according to the procedures previously described by Molyneux et al (Cell Biol Toxicol 27, 13-40, 2011) and the scheme is shown in FIG. 8. BU (Sigma chemicals, Poole, Dorset, UK) was dissolved in acetone to a final concentration of 18.8 mg/ml, diluted five-fold with distilled water, and was intraperitoneally administered three times for 5 days with the dose of 0.2 ml BU solution per mouse. Equal amount of five-fold diluted acetone solution without BU was administered to vehicle control group. QGR was dissolved in dimethylsulfoxide and diluted with distilled water to a final concentration of 1.25%. Mice were orally administered every two days with QGR (0.25 mg/mouse) for 63 days. Seven or eight mice were sacrificed on days of 1, 5, 10, 16, 25, 40, 49, and 63 after BU administration and were investigated to confirm the effect of QGR to recover bone marrow failure.
In order to investigate whether QGR has an activity to recover bone marrow failure induced by BU administration, the expression of markers associated with hematopoietic stem cells/progenitors (Sca-1^+ or c-kit^+), bone mesenchymal stem/progenitor cells (Sca-1^+CD44^+), apoptotic hematopoietic stem cells (c-Kit^+7-aminoactinomycin D^+) were measured by flow cytometry. The retrieved BMNCs with the concentration of 0.6×10^6 cells/ml were precipitated by centrifugation, re-suspended in 100 μl of PBS containing 0.02% sodium azide and 2% FBS, and incubated with 10 μl of mouse anti-CD16/CD32 Ab (eBioScience, San Diego, Calif., USA) as FC receptor blocker for 3 min at room temperature. After that, monoclonal antibodies for c-kit (2B8, BD Pharmingen, USA), Sca-1 (D7, eBioscience), CD44 (IM7, eBioscience) were added and further incubated for 30 min under the temperature of 4° C. Isotype-matched irrelevant rat IgG2b-FITC (eBioscience) and isotype-matched irrelevant rat IgG2a-PE (eBioscience) were used as negative control. The flow cytometric analysis was carried out using FACS Calibur (Becton Dickinson, Oxnard, Calif., USA) and the percentage of positively stained cells was determined. The double staining of c-kit and 7-AAD (Calbiochem-Novabiochem, Nottingham, UK) was carried out according to the procedures previously described by Philpott et al (Exp Hematol, 23, 1642-1648, 1995).

[2] = test system: BMNCs; assay: Flow cytometric analysis for cells positive for TER-119; assay type: cell-based, mouse; settings: 7 days, 100 or 200 μM/ml, dose-dependently, vs negative control
Protocol: To confirm the differentiation of mouse HSCs or EPCs into erythroid cells by QGR treatment, flow cytometric analysis for mouse anti-TER-119 was performed. BMNCs were cultured with either rEpo (3 units/ml) or QGR (100 or 200 μM/ml) in 6-well plates. Cells were harvested at day 7, washed with PBS, re-suspended at concentration of 1×10^5 cells/ml in 100 μl of PBS containing 0.02% sodium azide and 2% FBS, incubated with 10 μl of mouse anti-CD16/CD32 Ab (eBioScience, San Diego, Calif., USA) as Fc receptor blocker for 3 min at room temperature and incubated with PE-conjugated anti-TER-119 Ab for 20 min at 4° C. Flow cytometric analysis was performed using FACS Calibur (Becton Dickinson, Oxnard, Calif., USA) and the percentage of positively stained cells was determined.

[3] = test system: bone marrow failure mouse induced by busulphan (BU); assay: Colony-forming unit-fibroblast (CFU-F) measurement from MSPCs in BU bone marrow failure model; assay type: in vivo, Balb/c mice; settings: decreased from day 10 in positive control group; p<0.05
Protocol: as §1, with “Seven or eight mice were sacrificed on days of 1, 5, 10, 16, 25, 40, 49, and 63 after BU administration and were investigated to confirm the effect of QGR to recover bone marrow failure.” left out
CFU-F, a progenitor cell colony differentiated from MSPCs is in the stage prior to being finally matured into mesenchymal cells such as osteoblast, vascular endothelial cells acting as hematopoietic stem cell niche. In order to investigate the effect of QGR on the formation and differentiation of mesenchymal stem cells, MSPCs were isolated and the number of CFU-F colonies of the respective groups was measured and compared to each other. […] All visible colonies were counted.

[4] = test system: bone marrow failure mouse induced by busulphan (BU); assay: Histopathological features of bone marrow and osteoid formation in BU bone marrow failure model; assay type: in vivo, Balb/c mice
Protocol: as §1
In order to confirm histological bone marrow damage induced by BU administration and to investigate whether QGR recovers the damaged bone marrow, histopathological features of H&E staining slide of the respective group's bone marrow were observed and compared to each other among the groups. In addition, the degree of sinusoid damage in bone marrow was graded as normal, hemorrhage or discontinuous, regressed vessel, assigned with numerical value and compared to each other among the groups. Moreover, in order to investigate the effect of QGR on the differentiation and maturation from mesenchymal stem cells to osteoblast, the formation of osteoid in humerus was comparatively analyzed. Goldner's trichrome staining was carried for osteoid and the stained area of the respective group was compared with each other after determining the stained area by using an image analyzer.

[5] = test system: bone marrow failure mouse induced by busulphan (BU); assay: Semisolid colonogenic assay for BFU-E in BU bone marrow failure model; assay type: in vivo, Balb/c mice; settings: from 10 days to 63 days after QGR administration, vs positive control group
Protocol: as §1
In order to investigate whether QGR has an activity to promote the differentiation from hematopoietic stem cells to BFU-E namely an erythroid progenitor in the damaged bone marrow induced by BU administration, the semisolid colonogenic assay was carried out. […] 14 days later, the number of BFU-E colony was counted.

CC1OC(Oc2c(-c3ccc(O)c(O)c3)oc3cc(O)cc(O)c3c2=O)C(OC(=O)c2cc(O)c(O)c(O)c2)C(O)C1O (stereo not drawn) [QGR, quercetin 3-O-β-(2″-galloyl)-rhamnopyranoside]
number of cells positive for Sca-1 (HSPCs) ([1]; after 10 days of QGR administration, vs positive control group): increased | number of c-kit positive cells (HSPCs) ([1]; at 10 days after QGR administration, significant difference from positive control at 16 days): increased | number of MSPCs (CD44+Sca-1+ cells) ([1]; time course, remarkably decreased in positive control group): no change | number of apoptotic HSPCs ([1]; time course, significantly increased from 10 days in positive control group): no change | ratio of TER-119+ cells (flow cytometric analysis) [2]: significantly increased | number of CFU-F [3]: recovered significantly | degree of osteoid formation ([4]; Goldner's trichrome staining, vs positive control group): actively formed | number of cells in bone marrow of humerus (cellularity) ([4]; H&E, vs positive control group): recovered | number of regressed sinusoid ([4]; day 10): significantly decreased | number of normal sinusoid ([4]; day 10, vs positive control group (BU)): greater | number of normal sinusoids ([4]; day 63): increased | numbers of hemorrhagic sinusoids ([4]; day 63): significantly decreased | numbers of regressed sinusoids ([4]; day 63): significantly decreased | area of osteoid formation ([4]; from day 10 after QGR administration, vs positive control group): increased significantly | number of megakaryocytes surrounding sinusoid ([4]; from day 16 after QGR administration, vs positive control group): increased | sinusoidal endothelia in the bone marrow ([4]; vs severely damaged sinusoids in positive control group): recovered sinosoids | number of BFU-E [5]: increased significantly and consistently
